Test results from patent US20030199671A1, “Binding molecules for Fc-region polypeptides” (priority 2001, published 2003).

How the values were obtained:
IgG4 [1] = target: T1, IgG4 (Homo sapiens, UniProt P01861); type: binding; design: all human subtypes derived from myeloma patients; purchased Calbiochem 400126; host or cells: myeloma patients; details: Table 9; immobilized peptide, 5.0 mg/ml resin load
Method in brief: (§1)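 Read-out is A280 of unbound IgG (1.4 mg/ml extinction coefficient), with percent bound derived against non-filtered or negative controls. Targets were incubated with immobilized peptides in PBST or TBST for 1-1.5 h at room temperature. Hydrolyzed Sepharose and immobilized Protein A serve as negative and positive controls.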

goat IgG = type: binding; details: Table 11; unfractionated IgG
Method in brief: as §1

mouse IgG = type: binding; details: Table 11; unfractionated IgG
Method in brief: as §1

bovine IgG = type: binding; details: Table 11; unfractionated IgG
Method in brief: as §1

human IgG2 = target: T2, human IgG2 (Homo sapiens, UniProt P01859); type: binding; details: Table 9; immobilized peptide, 5.0 mg/ml resin load
T2 construct: all human subtypes derived from myeloma patients; purchased Calbiochem 400122; host or cells: myeloma patients
Method in brief: as §1

human IgG = type: binding; details: Table 11; unfractionated IgG
Method in brief: as §1

human IgG1 = target: T3, human IgG1 (Homo sapiens, UniProt P01857); type: binding; details: Table 9; immobilized peptide, 5.0 mg/ml resin load
T3 construct: all human subtypes derived from myeloma patients; purchased Calbiochem 400120; host or cells: myeloma patients
Method in brief: (§2)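 Static binding, peptide resin + IgG, 1-1.5 h RT with shaking, PBST pH 7.2 or TBST pH 7.5. Flow-through read at A280 vs buffer blank; % bound = control minus unbound. Elution at pH 8.5 bicarbonate and/or pH 4.0 citrate, 30-60 min.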

human plasma IgG3 = target: T4, human plasma IgG3 (Homo sapiens, UniProt P01860); assay: Fluorescence anisotropy binding, fluorescein-labeled peptide
T4 construct: the individual human plasma IgG isoforms: IgG1, IgG2, IgG3, or IgG4; purchased Calbiochem; host or cells: human plasma
Experimental: (§3) Peptides were synthesized by BACHEM Bioscience, Inc., (King of Prussia, Pa.), fluorescein labeled and purified by HPLC. Binding studies were performed using either a mixture of human plasma IgG isoforms (the Fc target) or the individual human plasma IgG isoforms: IgG1, IgG2, IgG3, or IgG4. All Fc target proteins were obtained from Calbiochem.
(§4) All measurements were performed in 384 well microplates with 20 nM fluorescein-labeled peptide and various concentrations of the IgG isoform in a volume of between 10 and 20 μl using a Tecan Polarion fluorescence polarization plate reader. All binding buffers included 0.01% (v/v) Tween 20 to prevent peptide adsorption to the microplate. The binding mixture was equilibrated for 10 minutes in the microplate at 30° C. prior to performing the measurement.
(§5) Peptides were synthesized, fluorescein-labeled and HPLC purified as described above. Binding studies were performed using either a mixture of human plasma IgG isoforms (the Fc protein) or the individual human plasma IgG isoforms: IgG1, IgG2, IgG3, or IgG4.
(§6) Measurements were performed in 384-well microplates with 2 nM fluorescein-labeled peptide and a varied concentration of the IgG isoform target in a volume of 10 μl using a Tecan Polarion fluorescence polarization plate reader. The Fc binding buffer was 50 mM Tris-HCl, 200 mM NaCl, pH 8.0, 0.01% Tween 20. The IgG binding buffer was PBS with 0.01% Tween 20. The binding mixtures were equilibrated for 10 minutes in the microplate at 30° C. prior to performing the measurements.

[2] = target: Fc (mixture of human plasma IgG isoforms); assay: as above; details: pH 8.0, 0.05 M Tris-HCl, 0.2 M NaCl
Experimental: as §3, §4, §5, §6

human plasma IgG4 = target: T5, human plasma IgG4 (Homo sapiens, UniProt P01861); assay: as above
T5 construct: the individual human plasma IgG isoforms: IgG1, IgG2, IgG3, or IgG4; purchased Calbiochem; host or cells: human plasma
Experimental: as §3, §4, §5, §6

human plasma IgG2 = target: T6, human plasma IgG2 (Homo sapiens, UniProt P01859); assay: as above
T6 construct: the individual human plasma IgG isoforms: IgG1, IgG2, IgG3, or IgG4; purchased Calbiochem; host or cells: human plasma
Experimental: as §4, §5, §6

human plasma IgG1 = target: T7, human plasma IgG1 (Homo sapiens, UniProt P01857); assay: as above
T7 construct: the individual human plasma IgG isoforms: IgG1, IgG2, IgG3, or IgG4; purchased Calbiochem; host or cells: human plasma
Experimental: as §4, §5, §6

IgG4 [3] = target: T1, IgG4; assay: Competition between synthetic peptides and Protein A for Fc binding; design: the individual human plasma IgG isoforms: IgG1, IgG2, IgG3, or IgG4; purchased Calbiochem; host or cells: human plasma; key: NB: no detected binding.; ?: partial decrease in anisotropy with added competitor; details: 5 mg/ml protein A
Experimental: (§7) Cross-competition studies between peptides were performed using 20 nM fluorescein-labeled peptide and 1-2 μM IgG1, IgG2, IgG3, or IgG4 in the presence and absence of a maximum of 100 μM unlabeled peptide or 5 mg/ml protein A.
(§8) This is consistent with the fact that Protein A is known not to bind human IgG3.

IgG3 [4] = target: T8, IgG3 (Homo sapiens, UniProt P01860); assay: as above; design: the individual human plasma IgG isoforms: IgG1, IgG2, IgG3, or IgG4; purchased Calbiochem; host or cells: human plasma; key: NB: no detected binding.; ?: partial decrease in anisotropy with added competitor; details: 5 mg/ml protein A
Experimental: as §7, §8

IgG3 [5] = target: T8, IgG3; type: binding; design: all human subtypes derived from myeloma patients; purchased Calbiochem 400124; host or cells: myeloma patients; details: Table 9; immobilized peptide, 5.0 mg/ml resin load
Method in brief: as §2

[6] = pH 9.3, 0.01 M sodium bicarbonate

`CC(=O)N[C@@H](C)C(=O)NCC(=O)N[C@@H](Cc1ccc(O)cc1)C(=O)N[C@@H](Cc1ccc(O)cc1)C(=O)N[C@@H](Cc1c[nH]c2ccccc12)C(=O)N[C@H]1CSSC[C@@H](C(=O)N2CCC[C@H]2C(=O)N[C@@H](CC(=O)O)C(=O)N[C@@H](CCC(N)=O)C(=O)NCC(=O)N[C@H](C(=O)N2CCC[C@H]2C(=O)NCC(=O)N2CCC[C@H]2C(=O)N[C@@H](CCC(=O)O)C(=O)NCC(=O)NCC(=O)NCC(=O)N[C@@H](CCCCN)C(N)=O)[C@@H](C)O)NC(=O)[C@H](CC(C)C)NC(=O)CNC(=O)[C@H](Cc2c[nH]c3ccccc23)NC(=O)[C@H](Cc2ccc(O)cc2)NC(=O)[C@H](CC(N)=O)NC1=O` [DX254] was tested, and the “% IgG Capture - Batch Binding, Human IgG4” value (IgG4 [1]) was 6%, the “% IgG Capture - Batch Binding, Goat IgG” value (goat IgG) was 0% and the “% IgG Capture - Batch Binding, Mouse IgG” value (mouse IgG) was 2%. For the same compound, the “% IgG Capture - Batch Binding, Bovine IgG” value (bovine IgG) was 0%, the “% IgG Capture - Batch Binding, Human IgG2” value (human IgG2) was 16% and the “% IgG Capture - Batch Binding, Human IgG” value (human IgG) was 16%. For the same compound, the “% IgG Capture - Batch Binding, Human IgG1” value (human IgG1) was 28%, the Kd (human plasma IgG3; pH 5.7, 0.01 M Tris-acetate) was 0.3 ± 0.3 µM and the Kd (human plasma IgG3; pH 7.4, 0.01 M Tris-HCl) was over 10 µM. For the same compound, the Kd (human plasma IgG3; [6]) was over 10 µM, the Kd [2] was 1.6 ± 0.6 µM and the Kd (human plasma IgG4; pH 5.7, 0.01 M Tris-acetate) was over 10 µM. For the same compound, the Kd (human plasma IgG4; pH 7.4, PBS, […] NaCl) was over 10 µM, the Kd (human plasma IgG4; [6]) was over 10 µM and the Kd (human plasma IgG2; pH 5.7, 0.01 M Tris-acetate) was over 1 µM. The Kd (human plasma IgG2; pH 7.4, 0.01 M Tris-HCl) was 2 ± 0.7 µM, the Kd (human plasma IgG2; pH 7.4, PBS, […] NaCl) was 1.1 ± 0.3 µM and the Kd (human plasma IgG2; [6]) was 2 ± 2.7 µM. It also gave a Kd (human plasma IgG1; pH 5.7, 0.01 M Tris-acetate, 0 M NaCl) of under 0.1 µM, a Kd (human plasma IgG1; pH 7.4, 0.01 M Tris-HCl) of under 2 µM and a Kd (human plasma IgG1; pH 7.4, PBS, […] NaCl) of 0.4 ± 0.2 µM. The Kd (human plasma IgG1; [6]) was 0.4 ± 0.4 µM, the “Competition between labeled peptide and Protein A, IgG4” value (IgG4 [3]) was “NB” and the “Competition between labeled peptide and Protein A, IgG3” value (IgG3 [4]) was “?”. For the same compound, the “% IgG Capture - Batch Binding, Human IgG3” value (IgG3 [5]) was 36%.
